Reference: patent US10189845B2, “4,6-substituted-pyrazolo[1,5-a]pyrazines as janus kinase inhibitors” (ARRAY BIOPHARMA INC., priority 2014, dated 2019)
Read-outs that look alike come from different tables or passages of the source.

Key:
Format in all cases: biochemical
JAK2 = JAK2 (Homo sapiens (Human), UniProt O60674); assay: JAK2 Inhibition Assay (Example C, Omnia kinase fluorescence peptide substrate assay); settings: JAK2 Enzyme IC50 1 mM ATP, averaged IC50 ranges
Procedure, shortened: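 4 nM JAK2 with 1 mM ATP and 10 μM Omnia Y7 peptide in 25 mM HEPES pH 7.4, 10 mM MgCl2, 0.01% Triton X-100, 1 mM DTT, 2% DMSO. Sox fluorescence (ex 360/em 485 nm) read every 50 s for 45 min; IC50 from 4-parameter fit of percent of control.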

JAK1 = JAK1 (Homo sapiens (Human), UniProt P23458); assay: JAK1 Inhibition Assay (Example B, Omnia kinase fluorescence peptide substrate assay)
Chain of JAK1 (P23458 whole entry): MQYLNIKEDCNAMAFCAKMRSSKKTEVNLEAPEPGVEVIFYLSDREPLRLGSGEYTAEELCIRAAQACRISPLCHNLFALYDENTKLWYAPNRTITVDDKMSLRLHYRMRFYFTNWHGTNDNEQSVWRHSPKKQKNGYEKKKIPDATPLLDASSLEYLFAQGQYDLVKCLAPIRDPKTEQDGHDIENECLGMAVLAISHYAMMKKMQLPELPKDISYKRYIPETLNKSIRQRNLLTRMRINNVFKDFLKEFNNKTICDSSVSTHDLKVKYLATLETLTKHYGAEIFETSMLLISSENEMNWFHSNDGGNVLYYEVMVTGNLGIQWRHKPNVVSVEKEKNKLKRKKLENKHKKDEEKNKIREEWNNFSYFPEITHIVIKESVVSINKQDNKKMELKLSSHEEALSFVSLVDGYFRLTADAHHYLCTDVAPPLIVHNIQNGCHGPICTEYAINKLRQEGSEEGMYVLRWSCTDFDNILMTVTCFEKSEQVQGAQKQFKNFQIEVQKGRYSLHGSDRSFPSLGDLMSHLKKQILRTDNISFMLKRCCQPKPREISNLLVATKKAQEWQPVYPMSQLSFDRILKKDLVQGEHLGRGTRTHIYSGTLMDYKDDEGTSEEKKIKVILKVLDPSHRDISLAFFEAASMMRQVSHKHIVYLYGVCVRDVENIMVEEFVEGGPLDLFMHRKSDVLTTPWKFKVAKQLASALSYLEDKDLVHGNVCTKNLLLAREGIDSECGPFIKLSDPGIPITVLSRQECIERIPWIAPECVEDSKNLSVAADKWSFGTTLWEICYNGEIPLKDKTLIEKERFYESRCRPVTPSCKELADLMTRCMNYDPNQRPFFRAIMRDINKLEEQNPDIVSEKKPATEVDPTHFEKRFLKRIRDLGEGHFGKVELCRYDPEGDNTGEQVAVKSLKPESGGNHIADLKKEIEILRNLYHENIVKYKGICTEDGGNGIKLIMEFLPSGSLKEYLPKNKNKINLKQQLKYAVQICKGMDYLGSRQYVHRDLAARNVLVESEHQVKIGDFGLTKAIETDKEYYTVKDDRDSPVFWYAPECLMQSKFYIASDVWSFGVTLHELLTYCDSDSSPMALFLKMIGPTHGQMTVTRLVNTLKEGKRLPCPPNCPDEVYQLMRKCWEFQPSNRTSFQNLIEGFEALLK
Procedure, shortened: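 Recombinant human JAK1 (12.5 nM) with 1 mM ATP and 8 μM Omnia Y12 Sox-peptide in 25 mM HEPES pH 7.4, 10 mM MgCl2, 0.01% Triton X-100, 1 mM DTT, 2% DMSO final. Phosphorylation read kinetically (ex 360/em 485 nm, 45 min); IC50 from 4-parameter fit of percent of control.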

JAK3 = JAK3 (Homo sapiens (Human), UniProt P52333); assay: JAK3 Inhibition Assay (Example D, Omnia kinase fluorescence peptide substrate assay)
Chain of JAK3 (P52333 whole entry): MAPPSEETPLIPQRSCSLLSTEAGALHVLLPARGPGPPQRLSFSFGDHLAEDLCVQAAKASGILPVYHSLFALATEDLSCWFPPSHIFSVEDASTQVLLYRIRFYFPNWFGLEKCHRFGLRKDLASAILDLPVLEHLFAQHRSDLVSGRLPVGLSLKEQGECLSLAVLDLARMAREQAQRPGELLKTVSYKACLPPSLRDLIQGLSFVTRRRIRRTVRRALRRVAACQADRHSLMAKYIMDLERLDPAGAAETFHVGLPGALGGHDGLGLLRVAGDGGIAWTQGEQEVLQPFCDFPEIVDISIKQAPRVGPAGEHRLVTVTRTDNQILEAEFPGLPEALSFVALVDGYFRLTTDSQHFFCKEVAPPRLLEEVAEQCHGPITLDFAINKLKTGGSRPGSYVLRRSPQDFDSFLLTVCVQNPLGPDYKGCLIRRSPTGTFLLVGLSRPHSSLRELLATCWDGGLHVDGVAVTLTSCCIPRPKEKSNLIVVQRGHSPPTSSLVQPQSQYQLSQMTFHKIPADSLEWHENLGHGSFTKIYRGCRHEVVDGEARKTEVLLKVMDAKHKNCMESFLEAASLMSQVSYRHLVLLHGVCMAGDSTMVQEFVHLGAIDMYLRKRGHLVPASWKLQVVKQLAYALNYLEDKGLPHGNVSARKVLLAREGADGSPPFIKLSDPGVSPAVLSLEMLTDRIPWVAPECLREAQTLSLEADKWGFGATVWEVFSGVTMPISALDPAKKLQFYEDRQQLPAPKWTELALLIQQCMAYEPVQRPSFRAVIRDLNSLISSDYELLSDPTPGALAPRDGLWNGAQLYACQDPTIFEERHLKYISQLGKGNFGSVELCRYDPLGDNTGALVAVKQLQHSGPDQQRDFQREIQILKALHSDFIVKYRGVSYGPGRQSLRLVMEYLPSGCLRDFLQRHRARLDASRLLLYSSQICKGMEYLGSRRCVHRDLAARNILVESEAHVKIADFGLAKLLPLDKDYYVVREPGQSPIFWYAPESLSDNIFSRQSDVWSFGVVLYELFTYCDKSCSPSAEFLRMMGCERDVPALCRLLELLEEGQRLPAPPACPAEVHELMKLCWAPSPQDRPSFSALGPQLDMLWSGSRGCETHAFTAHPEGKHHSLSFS
Procedure, shortened: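 Mixture held 2 nM JAK3, 1 mM ATP and 10 μM Omnia Y7 peptide in 25 mM HEPES pH 7.4, 10 mM MgCl2, 0.01% Triton X-100, 1 mM DTT, 2% DMSO final. Sox fluorescence (ex 360/em 485 nm) was read every 50 s for 45 min. IC50 came from a 4-parameter logistic fit of percent of control.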

Human Tyk2 kinase domain = Human Tyk2 kinase domain (Homo sapiens (Human), UniProt P29597); assay: Tyk2 Inhibition Assay (Example A, Omnia kinase fluorescence peptide substrate assay); settings: TYK2 Enzyme IC50 1 mM ATP, averaged IC50 ranges
Chain of Human Tyk2 kinase domain (P29597 886-1187): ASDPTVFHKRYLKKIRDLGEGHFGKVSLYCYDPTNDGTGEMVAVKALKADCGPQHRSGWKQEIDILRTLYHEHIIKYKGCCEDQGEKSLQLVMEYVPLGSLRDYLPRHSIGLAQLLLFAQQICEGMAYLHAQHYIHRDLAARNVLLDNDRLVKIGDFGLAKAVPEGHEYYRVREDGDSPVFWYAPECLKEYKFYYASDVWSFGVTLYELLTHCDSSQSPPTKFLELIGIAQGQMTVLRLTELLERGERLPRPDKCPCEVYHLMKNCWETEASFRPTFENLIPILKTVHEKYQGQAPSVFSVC
Procedure, shortened: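 Omnia Sox-peptide kinetic fluorescence assay (ex 360/em 485 nm, read every 50 s for 45 min) with 1 nM human Tyk2 kinase domain (aa 886–1187, His tag cleaved, baculovirus-expressed), 1 mM ATP, 8 μM Omnia Y12 peptide, in 25 mM HEPES pH 7.4, 10 mM MgCl2, 0.01% Triton X-100, 1 mM DTT, 2% DMSO. IC50 from 4-parameter logistic fit of percent of control.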

[1] = JAK1 Enzyme IC50 1 mM ATP, 1 mM ATP, averaged IC50 ranges

Chain of JAK2 (O60674 whole entry): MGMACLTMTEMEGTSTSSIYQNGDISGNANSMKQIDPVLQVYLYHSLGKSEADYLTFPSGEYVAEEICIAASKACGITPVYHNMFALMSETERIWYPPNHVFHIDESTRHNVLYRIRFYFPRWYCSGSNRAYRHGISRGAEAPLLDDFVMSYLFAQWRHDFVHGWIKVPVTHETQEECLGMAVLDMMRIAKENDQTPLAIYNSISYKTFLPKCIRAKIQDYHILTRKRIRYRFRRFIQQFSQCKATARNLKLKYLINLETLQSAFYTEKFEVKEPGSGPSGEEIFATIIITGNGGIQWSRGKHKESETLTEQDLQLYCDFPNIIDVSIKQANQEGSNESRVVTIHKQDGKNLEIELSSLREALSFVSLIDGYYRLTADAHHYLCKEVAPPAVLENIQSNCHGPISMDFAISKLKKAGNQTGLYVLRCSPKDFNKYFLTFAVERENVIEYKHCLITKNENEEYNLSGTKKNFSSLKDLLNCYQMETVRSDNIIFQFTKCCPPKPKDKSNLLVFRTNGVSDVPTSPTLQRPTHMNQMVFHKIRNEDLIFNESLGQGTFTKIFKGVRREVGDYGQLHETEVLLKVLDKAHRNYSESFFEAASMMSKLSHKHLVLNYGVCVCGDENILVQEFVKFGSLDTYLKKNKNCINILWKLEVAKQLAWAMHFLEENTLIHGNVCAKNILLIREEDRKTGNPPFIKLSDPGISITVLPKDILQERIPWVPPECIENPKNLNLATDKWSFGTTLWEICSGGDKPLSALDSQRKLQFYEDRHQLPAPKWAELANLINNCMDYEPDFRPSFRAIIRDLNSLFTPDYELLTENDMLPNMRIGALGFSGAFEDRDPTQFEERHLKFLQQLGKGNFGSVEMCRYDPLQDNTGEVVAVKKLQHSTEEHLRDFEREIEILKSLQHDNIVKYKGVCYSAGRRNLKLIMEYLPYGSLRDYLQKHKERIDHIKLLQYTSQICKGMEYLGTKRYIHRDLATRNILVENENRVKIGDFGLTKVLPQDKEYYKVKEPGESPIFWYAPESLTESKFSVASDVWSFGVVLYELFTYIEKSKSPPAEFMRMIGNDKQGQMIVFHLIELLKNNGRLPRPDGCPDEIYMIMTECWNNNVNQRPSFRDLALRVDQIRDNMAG

Row | Compound | IC50 (JAK2) [µM] | IC50 (JAK1) [µM] | IC50 (JAK3) [µM] | IC50 (Human Tyk2 kinase domain) [µM] | IC50 (JAK1; [1]) [µM]
1 | CCC(CC)n1cc(-c2nc(-c3cnn(CCS(C)(=O)=O)c3)cn3nccc23)cn1 [Example 22, 6-(1-(2-(methylsulfonyl)ethyl)-1H-pyrazol-4-yl)-4-(1-(pentan-3-yl)-1H-pyrazol-4-yl)pyrazolo[1,5-a]pyrazine] | 0.01 to 0.1 | 0.1 to 1 | 1 to 10 | 0.01 to 0.1 | 
2 | CC(C)C[C@H](C)n1cc(-c2nc(-c3cnn(C[C@@H](O)CO)c3)cn3nccc23)cn1 [Example 75, (R)-3-(4-(4-(1-((S)-4-methylpentan-2-yl)-1H-pyrazol-4-yl)pyrazolo[1,5-a]pyrazin-6-yl)-1H-pyrazol-1-yl)propane-1,2-diol] | 0.1 to 1 |  | 1 to 10 | 0.1 to 1 | 1 to 10
3 | CCC(CC)n1cc(-c2nc(-c3cnn(C[C@H](O)C(C)(C)O)c3)cn3nccc23)cn1 [Example 56, (S)-3-methyl-1-(4-(4-(1-(pentan-3-yl)-1H-pyrazol-4-yl)pyrazolo[1,5-a]pyrazin-6-yl)-1H-pyrazol-1-yl)butane-2,3-diol] | 0.01 to 0.1 | 1 to 10 | 1 to 10 | 0.01 to 0.1 | 
4 | CCC(CC)n1cc(-c2nc(-c3cnn(C[C@@H](O)CN4CC(OC)C4)c3)cn3nccc23)cn1 [Example 104, (S)-1-(3-methoxyazetidin-1-yl)-3-(4-(4-(1-(pentan-3-yl)-1H-pyrazol-4-yl)pyrazolo[1,5-a]pyrazin-6-yl)-1H-pyrazol-1-yl)propan-2-ol] | 0.01 to 0.1 |  | 1 to 10 | 0.01 to 0.1 | 1 to 10
5 | CCC(CC)n1cc(-c2nc(-c3cnn(C[C@@H](O)CCO)c3)cn3nccc23)cn1 (single isomer, unassigned) [Example 200] | 0.01 to 0.1 | 0.1 to 1 | 1 to 10 | 0.01 to 0.1 | 
6 | CCC(CC)n1cc(-c2nc(-c3cnn(C4CN(C(=O)CN)C4)c3)cn3nccc23)cn1 [Example 186, 2-amino-1-(3-(4-(4-(1-(pentan-3-yl)-1H-pyrazol-4-yl)pyrazolo[1,5-a]pyrazin-6-yl)-1H-pyrazol-1-yl)azetidin-1-yl)ethanone] | 0.01 to 0.1 | 1 to 10 | 1 to 10 | 0.01 to 0.1 | 
7 | CCC(CC)n1cc(-c2nc(-c3cnn(CCN(C)C)c3)cn3nccc23)cn1 [Example 10, N,N-dimethyl-2-(4-(4-(1-(pentan-3-yl)-1H-pyrazol-4-yl)pyrazolo[1,5-a]pyrazin-6-yl)-1H-pyrazol-1-yl)ethanamine] | 0.01 to 0.1 | 1 to 10 | 1 to 10 | 0.01 to 0.1 | 
8 | CCC(CC)n1cc(-c2nc(-c3cnn(C[C@H]4CCC(=O)N4)c3)cn3nccc23)cn1 [Example 18, (R)-5-((4-(4-(1-(pentan-3-yl)-1H-pyrazol-4-yl)pyrazolo[1,5-a]pyrazin-6-yl)-1H-pyrazol-1-yl)methyl)pyrrolidin-2-one] | 0.01 to 0.1 | 0.01 to 0.1 | 1 to 10 | 0.01 to 0.1 | 
9 | CCC(CC)n1cc(-c2nc(-c3cnn(CCN4CCC(CO)CC4)c3)cn3nccc23)cn1 [Example 146, (1-(2-(4-(4-(1-(pentan-3-yl)-1H-pyrazol-4-yl)pyrazolo[1,5-a]pyrazin-6-yl)-1H-pyrazol-1-yl)ethyl)piperidin-4-yl)methanol] | 0.01 to 0.1 | 1 to 10 | 1 to 10 | 0.01 to 0.1 | 
10 | CCC(CC)n1cc(-c2nc(-c3cnn([C@H]4C[C@@H](C(=O)N(C)C)C4)c3)cn3nccc23)cn1 [Example 170, (1s,3s)-N,N-dimethyl-3-(4-(4-(1-(pentan-3-yl)-1H-pyrazol-4-yl)pyrazolo[1,5-a]pyrazin-6-yl)-1H-pyrazol-1-yl)cyclobutanecarboxamide] | 0.01 to 0.1 | 0.1 to 1 | 1 to 10 | 0.01 to 0.1 | 
11 | CCC(CC)n1cc(-c2nc(-c3cnn(CCN4CC(F)C4)c3)cn3nccc23)cn1 [Example 138, 6-(1-(2-(3-fluoroazetidin-1-yl)ethyl)-1H-pyrazol-4-yl)-4-(1-(pentan-3-yl)-1H-pyrazol-4-yl)pyrazolo[1,5-a]pyrazine] | 0.01 to 0.1 | 1 to 10 | 1 to 10 | 0.01 to 0.1 | 
12 | CCC(CC)n1cc(-c2nc(-c3cnn(CC4(O)CCOCC4)c3)cn3nccc23)cn1 [Example 116, 4-((4-(4-(1-(pentan-3-yl)-1H-pyrazol-4-yl)pyrazolo[1,5-a]pyrazin-6-yl)-1H-pyrazol-1-yl)methyl)tetrahydro-2H-pyran-4-ol] | 0.01 to 0.1 |  | 1 to 10 | 0.01 to 0.1 | 1 to 10
13 | CCC(CC)n1cc(-c2nc(-c3cnn(C4CN(C(=O)C5CC5)C4)c3)cn3nccc23)cn1 [Example 43, cyclopropyl(3-(4-(4-(1-(pentan-3-yl)-1H-pyrazol-4-yl)pyrazolo[1,5-a]pyrazin-6-yl)-1H-pyrazol-1-yl)azetidin-l-yl)methanone] | 0.01 to 0.1 | 1 to 10 | 1 to 10 | 0.01 to 0.1 | 
14 | CCOC(C)n1cc(-c2nc(-c3cnn(C)c3)cn3nccc23)cn1 (centres unmarked) [Example 1, 4-(1-(1-ethoxyethyl)-1H-pyrazol-4-yl)-6-(1-methyl-1H-pyrazol-4-yl)pyrazolo[1,5-a]pyrazine] | 1 to 10 | 1 to 10 | 1 to 10 | 1 to 10 | 
15 | OC[C@H](O)Cn1cc(-c2cn3nccc3c(-c3cnn(C(C4CC4)C4CC4)c3)n2)cn1 [Example 216, (R)-3-(4-(4-(1-(dicyclopropylmethyl)-1H-pyrazol-4-yl)pyrazolo[1,5-a]pyrazin-6-yl)-1H-pyrazol-1-yl)propane-1,2-diol] | 0.1 to 1 | 1 to 10 | 1 to 10 | 0.1 to 1 | 
16 | CC(C)C[C@@H](C)n1cc(-c2nc(-c3cnn(C[C@H](O)CO)c3)cn3nccc23)cn1 [Example 78, (S)-3-(4-(4-(1-((R)-4-methylpentan-2-yl)-1H-pyrazol-4-yl)pyrazolo[1,5-a]pyrazin-6-yl)-1H-pyrazol-1-yl)propane-1,2-diol] | 0.1 to 1 |  | 1 to 10 | 0.1 to 1 | 1 to 10
17 | CCC(CC)n1cc(-c2nc(-c3cnn(C[C@H](O)CN4CC(OC)C4)c3)cn3nccc23)cn1 [Example 103, (R)-1-(3-methoxyazetidin-1-yl)-3-(4-(4-(1-(pentan-3-yl)-1H-pyrazol-4-yl)pyrazolo[1,5-a]pyrazin-6-yl)-1H-pyrazol-1-yl)propan-2-ol] | 0.01 to 0.1 |  | 1 to 10 | 0.01 to 0.1 | 1 to 10
18 | CCC(CC)n1cc(-c2nc(-c3cnn([C@H]4C[C@H](C(N)=O)C4)c3)cn3nccc23)cn1 [Example 167, (1r,3r)-3-(4-(4-(1-(pentan-3-yl)-1H-pyrazol-4-yl)pyrazolo[1,5-a]pyrazin-6-yl)-1H-pyrazol-1-yl)cyclobutanecarboxamide] | 0.01 to 0.1 | 0.1 to 1 | 1 to 10 | 0.01 to 0.1 | 
19 | CCC(C1CC(F)(F)C1)n1cc(-c2nc(-c3cnn(C[C@@H](O)CO)c3)cn3nccc23)cn1 (stereo partly drawn) [Example 79, (2R)-3-(4-(4-(1-(1-(3,3-difluorocyclobutyl)propyl)-1H-pyrazol-4-yl)pyrazolo[1,5-a]pyrazin-6-yl)-1H-pyrazol-1-yl)propane-1,2-diol] | 0.01 to 0.1 | 0.01 to 0.1 | 1 to 10 | 0.01 to 0.1 | 
20 | CC[C@H](C1CC1)n1cc(-c2nc(-c3cnn(C[C@H](C)O)c3)cn3nccc23)cn1 [Example 218, (S)-1-(4-(4-(1-((R)-1-cyclopropylpropyl)-1H-pyrazol-4-yl)pyrazolo[1,5-a]pyrazin-6-yl)-1H-pyrazol-1-yl)propan-2-ol] | 0.01 to 0.1 | 0.1 to 1 | 1 to 10 | 0.01 to 0.1 | 
21 | CCC(CC)n1cc(-c2nc(-c3cnn([C@@H](C)CO)c3)cn3nccc23)cn1 [Example 125, (S)-2-(4-(4-(1-(pentan-3-yl)-1H-pyrazol-4-yl)pyrazolo[1,5-a]pyrazin-6-yl)-1H-pyrazol-1-yl)propan-1-ol] | 0.1 to 1 |  | 1 to 10 | 0.01 to 0.1 | 1 to 10
22 | CCC(CC)n1cc(-c2nc(-c3cnn(C(C)(C)CO)c3)cn3nccc23)cn1 [Example 124, 2-methyl-2-(4-(4-(1-(pentan-3-yl)-1H-pyrazol-4-yl)pyrazolo[1,5-a]pyrazin-6-yl)-1H-pyrazol-1-yl)propan-1-ol] | 0.01 to 0.1 | 0.1 to 1 | 1 to 10 | 0.01 to 0.1 | 
23 | Cn1cc(-c2cn3nccc3c(-c3cnn(C4CCCC4O)c3)n2)cn1 (centres unmarked) [Example 53, 2-(4-(6-(1-methyl-1H-pyrazol-4-yl)pyrazolo[1,5-a]pyrazin-4-yl)-1H-pyrazol-1-yl)cyclopentanol] | 0.1 to 1 | 1 to 10 | 1 to 10 | 0.1 to 1 | 
